Laboratory results published in patent US20220389112A1, “TREATMENT OF MULTIPLE MYELOMA” (priority 2019, published 2022).

Legend:
Format in all cases: cell-based
[1] = tested on: JJN3 MM cells; test: CD38 expression by flow cytometry on JJN3; details: treated 72 hours prior to expression measurement
Experimental: (§1) Both types of primary NK cell were cultured with the same amount of IL-2 ([…] as is standard for primary NK cell work. MM1S, H929 and JJN3 were treated with either SIA or Neura as described above and stained with an anti-CD38 antibody (BD Pharmingen-564498) for 30 mins on ice prior to being screened for expression using flow cytometry.
JJN3 MM cells were treated with 300 μM SIA and 10 nM ATRA (all-trans retinoic acid), or 300 μM SIA, 10 nM ATRA and DMSO individually for 72 hrs@37° C. After 72 hours, the cells were collected, washed with normal culture media once and then treated with Daratumumab at a concentration of 10 μg/ml for 30 mins at room temperature.
Some cells from all treatment conditions were not treated with Daratumumab and were instead screened for CD38 expression using an anti-CD38 antibody.

[2] = tested on: H929 target myeloma cell line; test: NK cell mediated cytotoxicity co-culture against H929; details: expanded primary NK cells, co-cultures 4 hrs
Experimental: Co-cultures were carried out with either expanded (Miltenyi method) primary NK cells or IL-2 activated primary NK cells, both originally isolated from peripheral blood supplied by healthy donors and H929 and JJN3 target myeloma cell lines.
Propidium Iodide was used in flow cytometry to identify dead cells. MM cells were separated from NK cells by staining NK cells with CFSE cell tracking dye prior to initiating the co-culture.
% specific lysis (reported in all our figures) was calculated using the following formula:
Total cell death−basal cell death/100−basal cell death×100=%
Cell death here applies to target cells (e.g. JJN3 and H929)
After 30 mins treatment with Daratumumab, cells were co-cultured with primary expanded NK cells (Miltenyi method) for 4 hours at either 0.5:1 or 1:1 E:T (Effector:Target) ratios.

[3] = tested on: MM cell line MM1S; test: CD38 expression by flow cytometry on MM1S; details: anti-CD38 staining, vs non-treated controls
Experimental: (§2) Desialylation: Target cells were cultured with 300 μM 3Fax-Peracetyl Neu5Ac (SIA, sialyltransferase inhibitor) for 72 hrs prior to use or treated with Neuraminidase (Neura, sialidase) for 45 mins@37° C. prior to use.
as §1

[4] = tested on: MM cell line H929; test: CD38 expression by flow cytometry on H929; details: anti-CD38 staining, vs non-treated controls
Experimental: as §2, §1

CC1=C(/C=C/C(C)=C/C=C/C(C)=C/C(=O)O)C(C)(C)CCC1 [ATRA, all-trans retinoic acid]
CD38 expression [1]: strongly up-regulates CD38 expression

COC(=O)C1(OC(C)=O)OC(C(OC(C)=O)C(COC(C)=O)OC(C)=O)C(NC(C)=O)C(OC(C)=O)C1F (stereo not shown) [SIA, 3Fax-Peracetyl Neu5Ac]
expanded primary NK cell-mediated cytotoxicity (% specific lysis) [2]: enhanced expanded primary NK cell-mediated cytotoxicity | CD38 expression (MFI) [3]: unmasks CD38 | CD38 expression (MFI) [4]: unmasks CD38
